The source of these data is patent publication US20230108442A1, “NOVEL ANTIMALARIAL AGENT CONTAINING HETEROCYCLIC COMPOUND” (Eisai R&D Management Co., Ltd., priority 2020, published 2023).

Assay [1] concerns Plasmodium falciparum strain 3D7 (chloroquine-sensitive). The experiment in a line: in vitro drug susceptibility test, parasite lactate dehydrogenase detection, strain 3D7. Format: cell-based. The following applies: 72 hours incubation, pLDH absorbance at 660 nm, read-out: Pf_3D7 IC50. Here is the method:
(§1) Plasmodium falciparum strain 3D7 (chloroquine-sensitive) and K1 (chloroquine-resistant) were obtained from Kitasato University and used for testing antimalarial activities in vitro. The cultivation of P. falciparum was conducted according to Trager's method (Trager, W and Jensen and J., Human malaria parasites in continuous culture. Science, 193:673-677, 1976) with some modification. Precisely, parasites were kept in culture flasks with RPMI1640 medium supplemented with 10% human plasma and 2% fresh human erythrocytes and incubated at 37° C. with the gas condition of 5% CO2 and 5% 02. The parasitemia (percentage of infected erythrocytes to total erythrocytes) were kept within 0.25-10%. Culture medium were replaced and fresh erythrocytes were supplied every 2-3 days. Drug susceptibility test was conducted according to Desjardins's method (Desjardins, R. E., Canfield, C. J., Haynes, D. E. and Chulay, J. D., Quantitative assessment of antimalarial activity in vitro by a semiautomated microdilution technique. Antimicrob. Agents Chemother., 16:710-718, 1979) with some modification. The compounds I to IX and known antimalarial agents (chloroquine and artemisinin) were tested at the same time. Precisely, 199 micro L of parasite cultures (2% hematocrit and 0.75-1% parasitemia) and 1 micro L of compound solution serially diluted in DMSO were poured into every well in 96-well titer plates and final drug concentrations were set within 0.001-1 micro g/mL. The plates were kept at 37° C. with the gas condition of 5% CO2 and 5% O2 for 72 hours and then parasite growth was quantified with Makler's method to detect plasmodial lactate dehydrogenase (Makler, M. T., Rise, J. M., Williams, J. A., Bancroft, J. E., Piper, R. C., Gibbins, B. L. and Hinrichs, D. J., Parasite lactate dehydrogenase as an Assay for Plasmodium falciparum drug sensitivity. Am. J. Med. Hyg., 48:739-741, 1993) with some modification. Precisely, culture plate was kept in freezer overnight and then thawed at 37° C. to disrupt the erythrocytes and parasite cells. In the new 96-well titer plates, 100 micro L of enzyme reaction solution (110 mM Li-lactate, 0.5 mM acetylpyridine-adenine dinucleotide, 50 mM Tris (pH 7.5), 10 mM EDTA, 50 mM KCl and 15 g/L PEG6000) and 20 micro L of freeze-thaw culture were mixed in each well and then kept at room temperature for 30 minutes. The detection solution was prepared by mixing equal volume of 2 mg/mL nitro blue tetrazolium and 0.1 mg/mL phenazine ethosulfate and 20 micro L of the solution was added to each well. After the incubation at room temperature in the dark for 90 minutes, absorbance at 660 nm was analysed and IC50s were calculated from dose response curve.

For assay [2], the system named is Plasmodium falciparum strain K1 (chloroquine-resistant). In words: in vitro drug susceptibility test, parasite lactate dehydrogenase detection, strain K1. The conditions noted are these: 72 hours incubation, pLDH absorbance at 660 nm, read-out: Pf_K1 IC50. The class given is cell-based. Here is the method:
as §1

Assay [3] has as its system Plasmodium falciparum Pf3D70087/N9. In words: humanized murine malaria model, parasitemia by flow cytometry. Format: in vivo. The following applies: oral, once daily for three days (I, V) or four days (II), start 72 h post infection, read seven days post infection. Here is the method: The following pharmacological tests in the humanized murine malaria model were conducted using the compounds I, II and V at The Art of Discovery S.L. (Bizkaia, Spain). Briefly, mice engrafted with human erythrocytes were intravenously infected with parasitized red blood cells 72 h before drug treatment inception. The effect of treatment on parasitemia was assessed by measuring the percentage of infected erythrocytes in peripheral blood.
Plasmodium falciparum Pf3D70087/N9, the parasite strain used in this experiment, was described in reference (1). Immunodeficient female NSG (NOD-scid IL-2Rγnull) mice were engrafted with human erythrocytes to have a minimum of 40% of human erythrocytes circulating in peripheral blood during the whole experiment. Each mouse was intraperitoneally (i.p.) or intravenously (i.v.) inoculated with 1 mL (i.p.) or 0.7 mL (i.v.) of 50%-75% hematocrit erythrocyte suspension in RPMI1640 medium, 25% (vol/vol) decomplemented human serum, 3.1 mM hypoxanthine. Then humanized NSG mice were infected with peripheral blood from donor mice by intravenous injection of 0.3 mL of 1.17×10^8 parasitized-erythrocytes per ml suspension. Drug treatment was started after 72-h post infection. In the treatment, 10 ml/kg of compound solution were orally administered to each mouse, once daily for three or four days (three days for compounds I and V, four days for compound II, respectively). An analysis of the parasite population in peripheral blood was performed by flow cytometry as shown in reference (2) and the outcome was shown as the parasitemia expressed as the % of parasitized erythrocytes to the total erythrocytes in peripheral blood. Briefly, serial 2 micro L blood samples of peripheral blood from infected mice were stained with TER-119-Phycoerythrine (marker of murine erythrocytes) and SYTO-16 (nucleic acid dye) and then analyzed by flow cytometry. The therapeutic efficacies were expressed as ED90, the daily doses that reduce by 90% parasitemia to untreated control animals after seven days post infection.
In general terms: In flow cytometry, cells or beads pass a laser one at a time.

Values joined by “and” are separate entries in the source; they are usually repeats but may differ in a detail not shown here. Equal values may be shown once.

For orientation: IC50 means the concentration at which inhibition is half-maximal.

As to `Cc1nn(C(F)F)cc1-c1cc(C(=O)NCc2ccc(O[C@H](C)C(F)(F)F)cc2)c(N)nc1N` [III, (R)-2,6-diamino-5-(1-(difluoromethyl)-3-methyl-1H-pyrazol-4-yl)-N-(4-((1,1,1-trifluoropropan-2-yl)oxy)benzyl)nicotinamide], the IC50 in assay [1] is 0.078 µg/mL and 162 nM; in assay [2] it was 0.121 µg/mL and 249 nM.

As to `Nc1nc(N)c(-n2cnc(C(F)(F)F)n2)cc1C(=O)NCc1ccc(OCC(F)(F)F)cc1` [IV, 2,6-diamino-N-(4-(2,2,2-trifluoroethoxy)benzyl)-5-(3-(trifluoromethyl)-1H-1,2,4-triazol-1-yl)nicotinamide], the IC50 in assay [1] is 125 nM; in assay [2], 0.031 µg/mL and 171 nM.

In the case of `Nc1nc(N)c(-c2cnn(C(F)F)c2)cc1C(=O)NCc1ccc(OCC(F)(F)F)cc1F` [IX, 2,6-diamino-5-(1-(difluoromethyl)-1H-pyrazol-4-yl)-N-(2-fluoro-4-(2,2,2-trifluoroethoxy)benzyl)nicotinamide], the IC50 was 0.05 µg/mL and 113 nM in assay [1]; 0.083 µg/mL and 160 nM in assay [2].

In the case of `C[C@@H](Oc1ccc(CNC(=O)c2cc(-n3cnc(C(F)F)n3)c(N)nc2N)cc1)C(F)(F)F` [V, (R)-2,6-diamino-5-(3-(difluoromethyl)-1H-1,2,4-triazol-1-yl)-N-(4-((1,1,1-trifluoropropan-2-yl)oxy)benzyl)nicotinamide], the IC50 was 0.047 µg/mL and 99 nM in assay [1]; 0.075 µg/mL and 160 nM in assay [2]. For the same compound, in assay [3], the “ED90, daily dose that reduces parasitemia by 90% to untreated control animals” value came out at 6.2 mg/kg/day.

`C[C@@H](Oc1ccc(CNC(=O)c2cc(-n3cnc(CC(F)(F)F)n3)c(N)nc2N)cc1)C(F)(F)F` [VI, (R)-2,6-diamino-5-(3-(2,2,2-trifluoroethyl)-1H-1,2,4-triazol-1-yl)-N-(4-((1,1,1-trifluoropropan-2-yl)oxy)benzyl)nicotinamide]: the concentration for half-maximal inhibition (IC50) in assay [1] was 0.024 µg/mL and 48 nM; in assay [2] it was 0.038 µg/mL and 75 nM.

Take `Nc1nc(N)c(-n2cnc(C3(C(F)(F)F)CC3)n2)cc1C(=O)NCc1ccc(OCC(F)(F)F)cc1` [VII, 2,6-diamino-N-(4-(2,2,2-trifluoroethoxy)benzyl)-5-(3-(1-(trifluoromethyl)cyclopropyl)-1H-1,2,4-triazol-1-yl)nicotinamide]: the IC50 was 0.016 µg/mL and 30 nM in assay [1]; 0.021 µg/mL and 41 nM in assay [2].

In the case of `C[C@@H](Oc1ccc(CNC(=O)c2cc(-n3cnc(C4(F)CC4)n3)c(N)nc2N)cc1)C(F)(F)F` [VIII, (R)-2,6-diamino-5-(3-(1-fluorocyclopropyl)-1H-1,2,4-triazol-1-yl)-N-(4-((1,1,1-trifluoropropan-2-yl)oxy)benzyl)nicotinamide], the IC50 is 0.02 µg/mL and 54 nM in assay [1]; 0.031 µg/mL and 64 nM in assay [2].

As for `C[C@@H](Oc1ccc(CNC(=O)c2cc(-n3cnc(C(F)(F)F)n3)c(N)nc2N)cc1)C(F)(F)F` [compound I, (R)-2,6-diamino-5-(3-(trifluoromethyl)-1H-1,2,4-triazol-1-yl)-N-(4-((1,1,1-trifluoropropan-2-yl)oxy)benzyl)nicotinamide], the IC50 in assay [1] was 0.026 µg/mL; in assay [2] it was 0.043 µg/mL and 30 nM. Further, in assay [3], the “ED90, daily dose that reduces parasitemia by 90% to untreated control animals” value worked out at 3.2 mg/kg/day.

As to `C[C@@H](Oc1ccc(CNC(=O)c2cc(-c3cnn(C(F)F)c3)c(N)nc2N)cc1)C(F)(F)F` [compound II, (R)-2,6-diamino-5-(1-(difluoromethyl)-1H-pyrazol-4-yl)-N-(4-((1,1,1-trifluoropropan-2-yl)oxy)benzyl)nicotinamide], the concentration for half-maximal inhibition (IC50) in assay [1] was 0.02 µg/mL and 42 nM; in assay [2], 0.025 µg/mL and 53 nM. In assay [3], the “ED90, daily dose that reduces parasitemia by 90% to untreated control animals” value was found to be 5.0 mg/kg/day.
